Measured values published in PubChem BioAssay (NCI).
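Exposure lasted 48 hours, with cells grown in 96-well plates and compounds tested at five concentrations. Here, GI50 denotes the concentration required for 50% inhibition of growth. At the TGI there is no net growth.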

Legend:
Experiment in all cases: DTP human tumour cell line panel, 48 h
NCI-H522 lung = test system: NCI-H522 lung
HT29 colon = test system: HT29 colon
HCT-15 colon = test system: HCT-15 colon
U251 CNS = test system: U251 CNS
NCI-H226 lung = test system: NCI-H226 lung
SF-268 CNS = test system: SF-268 CNS
SK-OV-3 ovarian = test system: SK-OV-3 ovarian
M14 melanoma = test system: M14 melanoma
PC-3 prostate = test system: PC-3 prostate
MDA-MB-435 = test system: MDA-MB-435

## CCOP(=O)(OCC)OC1C=CC2CCC1C2 (stereo not drawn)
NCI-H522 lung
  TGI: > 100 µM
HT29 colon
  TGI: > 100 µM
HCT-15 colon
  TGI: > 100 µM
U251 CNS
  TGI: > 100 µM
NCI-H226 lung
  TGI: > 100 µM
SF-268 CNS
  TGI: > 100 µM
SK-OV-3 ovarian
  TGI: > 100 µM
M14 melanoma
  TGI: > 100 µM

## O=S(=O)(c1ccccc1)C1CN2OC1(S(=O)(=O)c1ccccc1)CC2c1ccc(Br)cc1 (stereo not drawn)
NCI-H522 lung
  TGI: > 100 µM
HT29 colon
  TGI: > 100 µM
HCT-15 colon
  TGI: > 100 µM
U251 CNS
  TGI: > 100 µM
NCI-H226 lung
  TGI: > 100 µM
SF-268 CNS
  TGI: > 100 µM
SK-OV-3 ovarian
  TGI: > 100 µM
M14 melanoma
  TGI: > 100 µM

## CCCO/S(=N\S(=O)(=O)c1ccccc1)c1ccccc1[N+](=O)[O-] (stereo not drawn)
NCI-H522 lung
  TGI: > 100 µM
HT29 colon
  TGI: > 100 µM
HCT-15 colon
  TGI: > 100 µM
U251 CNS
  TGI: > 100 µM
NCI-H226 lung
  TGI: > 100 µM
SF-268 CNS
  TGI: > 100 µM
SK-OV-3 ovarian
  TGI: > 100 µM
M14 melanoma
  TGI: > 100 µM

## Cc1ccc(S(=O)(=O)c2ccc(N)cc2)cc1
HT29 colon
  TGI: > 100 µM
HCT-15 colon
  TGI: > 100 µM
U251 CNS
  TGI: > 100 µM
SK-OV-3 ovarian
  TGI: > 100 µM
M14 melanoma
  TGI: > 100 µM

## NC(=O)OCCn1cc(-c2nc(-c3c[nH]c4ncccc34)cs2)c2ccccc21
NCI-H522 lung
  GI50: 1.49 µM
  TGI: 4.42 µM
HT29 colon
  GI50: 1.77 µM
  TGI: 8.55 µM
HCT-15 colon
  GI50: 1.92 µM
  TGI: > 100 µM
U251 CNS
  GI50: 1.91 µM
  TGI: 5.08 µM
PC-3 prostate
  GI50: 1.87 µM
  TGI: 14.6 µM
NCI-H226 lung
  GI50: 1.68 µM
  TGI: 12.5 µM
SF-268 CNS
  GI50: 1.48 µM
  TGI: 6.77 µM
SK-OV-3 ovarian
  GI50: 1.54 µM
  TGI: 6.44 µM
M14 melanoma
  GI50: 1.33 µM
  TGI: 4.53 µM

## O=Cc1ccc2c(c1-c1c(C=O)ccc3c1OCO3)OCO2
NCI-H522 lung
  TGI: > 100 µM
HT29 colon
  TGI: > 100 µM
HCT-15 colon
  TGI: > 100 µM
U251 CNS
  TGI: > 100 µM
NCI-H226 lung
  TGI: > 100 µM
SF-268 CNS
  TGI: > 100 µM
SK-OV-3 ovarian
  TGI: > 100 µM
M14 melanoma
  TGI: > 100 µM

## O=P1(c2ccccc2)CCCCC1
HT29 colon
  TGI: > 100 µM
HCT-15 colon
  TGI: > 100 µM
U251 CNS
  TGI: > 100 µM
NCI-H226 lung
  TGI: > 100 µM
SK-OV-3 ovarian
  TGI: > 100 µM
M14 melanoma
  TGI: > 100 µM

## O=C(Nc1ccc(F)cc1)c1cc(S(=O)(=O)Nc2nc3ccccc3o2)c(SCc2ccccc2)cc1Cl
HT29 colon
  GI50: 27 µM
  TGI: > 100 µM
MDA-MB-435
  GI50: 16.3 µM
  TGI: 30.7 µM
HCT-15 colon
  GI50: 15.8 µM
  TGI: 30.1 µM
U251 CNS
  GI50: 17.3 µM
  TGI: 31.7 µM
PC-3 prostate
  GI50: 24.4 µM
  TGI: 53.5 µM
NCI-H226 lung
  GI50: 12.1 µM
  TGI: 28.4 µM
SF-268 CNS
  GI50: 17.9 µM
  TGI: 43.1 µM
SK-OV-3 ovarian
  GI50: 22.1 µM
  TGI: 53.1 µM
M14 melanoma
  GI50: 16 µM
  TGI: 30.8 µM

## c1ccc2c(c1)c1c(c3ccccc32)CN2CCCC2C1 (stereo not drawn)
NCI-H522 lung
  TGI: 9.9 µM
HT29 colon
  TGI: > 34.8 µM
MDA-MB-435
  TGI: 31.6 µM
HCT-15 colon
  TGI: > 70.4 µM
U251 CNS
  TGI: 23.1 µM
PC-3 prostate
  TGI: 13.4 µM
SF-268 CNS
  TGI: 13.2 µM
SK-OV-3 ovarian
  TGI: > 100 µM
M14 melanoma
  TGI: 15.8 µM

## CNS(=O)(=O)NNS(=O)(=O)c1ccc(Br)cc1
NCI-H522 lung
  TGI: > 100 µM
HT29 colon
  TGI: > 100 µM
HCT-15 colon
  TGI: > 100 µM
U251 CNS
  TGI: > 100 µM
NCI-H226 lung
  TGI: > 100 µM
SF-268 CNS
  TGI: > 100 µM
SK-OV-3 ovarian
  TGI: > 100 µM
M14 melanoma
  TGI: > 100 µM

## Cc1cc(NS(=O)(=O)c2ccc(Nc3c4ccccc4nc4c(C(=O)N5CCN(CCO)CC5)ccc(Cl)c34)cc2)no1
HT29 colon
  TGI: > 100 µM
HCT-15 colon
  TGI: > 100 µM
U251 CNS
  TGI: > 100 µM
NCI-H226 lung
  TGI: > 100 µM
SF-268 CNS
  TGI: > 100 µM
SK-OV-3 ovarian
  TGI: > 100 µM
M14 melanoma
  TGI: > 100 µM

## Cc1ccc(C)c(N=C2NC(=O)C(CC(=O)Nc3ccc(Cl)cc3Cl)S2)c1 (stereo not drawn)
NCI-H522 lung
  TGI: 56.5 µM
HT29 colon
  TGI: > 100 µM
HCT-15 colon
  TGI: > 100 µM
U251 CNS
  TGI: > 100 µM
NCI-H226 lung
  TGI: > 100 µM
SF-268 CNS
  TGI: > 100 µM
SK-OV-3 ovarian
  TGI: > 100 µM
M14 melanoma
  TGI: > 100 µM

## COc1cc2c(c(OC)c1OC)-c1ncc3cc4c(cc3c1C2)OCO4
NCI-H522 lung
  GI50: 18.9 µM
  TGI: 45.9 µM
MDA-MB-435
  GI50: 13.2 µM
  TGI: 32.6 µM
HCT-15 colon
  GI50: 10.8 µM
  TGI: > 100 µM
U251 CNS
  GI50: 21.6 µM
  TGI: 54.2 µM
PC-3 prostate
  GI50: 34.7 µM
  TGI: > 100 µM
SK-OV-3 ovarian
  GI50: 21.9 µM
  TGI: 46.5 µM
M14 melanoma
  GI50: 45.5 µM
  TGI: > 100 µM

## CC(=O)O[C@H]1CCC2[C@@H]3CCC4Nc5[nH]ncc5C[C@]4(C)C3CC[C@@]21C (stereo partly drawn)
NCI-H522 lung
  TGI: 83.2 µM
HT29 colon
  TGI: > 100 µM
HCT-15 colon
  TGI: > 100 µM
U251 CNS
  TGI: > 100 µM
NCI-H226 lung
  TGI: > 100 µM
SF-268 CNS
  TGI: > 100 µM
SK-OV-3 ovarian
  TGI: > 100 µM
M14 melanoma
  TGI: > 100 µM

## [N-]=[N+]=Nc1cc(=O)n2c3c(cccc13)CCC2
NCI-H522 lung
  TGI: > 100 µM
HT29 colon
  TGI: > 100 µM
MDA-MB-435
  TGI: > 100 µM
HCT-15 colon
  TGI: > 100 µM
U251 CNS
  TGI: > 100 µM
PC-3 prostate
  TGI: > 100 µM
NCI-H226 lung
  TGI: > 100 µM
SF-268 CNS
  TGI: > 100 µM
M14 melanoma
  TGI: > 100 µM

## CCn1c(=O)c2c(=O)c3c4c(oc3oc2c2ccccc21)C(=O)c1ccccc1C4=O
NCI-H522 lung
  GI50: > 100 µM
  TGI: > 100 µM
MDA-MB-435
  GI50: > 100 µM
  TGI: > 100 µM
HCT-15 colon
  GI50: > 100 µM
  TGI: > 100 µM
U251 CNS
  GI50: > 27.1 µM
  TGI: > 100 µM
PC-3 prostate
  GI50: 8.71 µM
  TGI: > 100 µM
NCI-H226 lung
  GI50: > 100 µM
  TGI: > 100 µM
SF-268 CNS
  GI50: > 71 µM
  TGI: > 100 µM
SK-OV-3 ovarian
  GI50: > 100 µM
  TGI: > 100 µM
M14 melanoma
  GI50: > 100 µM
  TGI: > 100 µM

## O[C@H](c1cc(C(F)(F)F)nc2c(C(F)(F)F)cccc12)[C@@H]1CCCCN1
HT29 colon
  GI50: 2.49 µM
  TGI: 5.98 µM
MDA-MB-435
  GI50: 2.43 µM
  TGI: 7.07 µM
HCT-15 colon
  GI50: 11.9 µM
  TGI: 27 µM
U251 CNS
  GI50: 3.05 µM
  TGI: 8.38 µM
PC-3 prostate
  GI50: 2.08 µM
  TGI: 5.79 µM
NCI-H226 lung
  GI50: 6.72 µM
  TGI: 22.6 µM
SF-268 CNS
  GI50: 3.54 µM
  TGI: 15 µM
SK-OV-3 ovarian
  GI50: 6.11 µM
  TGI: 17.8 µM
M14 melanoma
  GI50: 2.53 µM
  TGI: 6.69 µM

## CC(C)C(=O)NS(=O)(=O)c1ccccc1
NCI-H522 lung
  TGI: > 100 µM
HT29 colon
  TGI: > 100 µM
U251 CNS
  TGI: > 100 µM
NCI-H226 lung
  TGI: > 100 µM
SF-268 CNS
  TGI: > 100 µM
SK-OV-3 ovarian
  TGI: > 100 µM
M14 melanoma
  TGI: > 100 µM

## O=C1NC(=O)C(c2cccc([N+](=O)[O-])c2)=C1Nc1cc(Cl)c(O)c(Cl)c1
NCI-H522 lung
  GI50: > 16.5 µM
  TGI: > 25 µM
HT29 colon
  GI50: > 25 µM
  TGI: > 25 µM
MDA-MB-435
  GI50: > 25 µM
  TGI: > 25 µM
HCT-15 colon
  GI50: > 25 µM
  TGI: > 25 µM
U251 CNS
  GI50: > 25 µM
  TGI: > 25 µM
PC-3 prostate
  GI50: > 25 µM
  TGI: > 25 µM
SF-268 CNS
  GI50: > 25 µM
  TGI: > 25 µM
SK-OV-3 ovarian
  GI50: 12 µM
  TGI: > 25 µM
M14 melanoma
  GI50: > 25 µM
  TGI: > 25 µM
